Measurements taken from patent US7635696B2, “Isoxazoline-indole derivatives with an improved antipsychotic and anxiolytic activity” (Janssen Pharmaceutica N.V., priority 2004, dated 2009).

Assays:
[1] = molecular target: T1, Human Dopamine D3 receptor (Homo sapiens, UniProt P35462); assay: Binding experiment for dopamine D3 receptor ([125I]Iodosulpride); conditions: transfected CHO cell membranes; for IC50: read-out: pIC50 D3 (converted)
T1 construct: expressed in transfected cells; host or cells: CHO cells
T1 sequence (P35462 whole entry): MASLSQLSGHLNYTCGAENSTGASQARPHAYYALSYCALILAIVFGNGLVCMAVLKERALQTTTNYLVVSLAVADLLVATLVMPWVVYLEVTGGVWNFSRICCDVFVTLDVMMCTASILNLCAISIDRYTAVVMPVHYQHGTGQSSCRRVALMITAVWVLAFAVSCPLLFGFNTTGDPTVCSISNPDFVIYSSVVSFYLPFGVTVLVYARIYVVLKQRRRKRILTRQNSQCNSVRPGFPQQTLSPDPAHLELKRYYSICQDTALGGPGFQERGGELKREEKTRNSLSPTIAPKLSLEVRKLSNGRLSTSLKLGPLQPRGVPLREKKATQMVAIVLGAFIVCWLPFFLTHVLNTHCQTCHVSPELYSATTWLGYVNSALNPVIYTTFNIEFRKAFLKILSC
Method: (§1) The interaction of the compounds of Formula (I) with dopamine-receptors, h5HT-transporter and h5HT1A receptor was assessed in in vitro radioligand binding experiments. In general, a low concentration of a radioligand with a high binding affinity for a particular receptor or transporter is incubated with a sample of a tissue preparation enriched in a particular receptor or transporter or with a preparation of cells expressing cloned human receptors in a buffered medium. During the incubation, the radioligand binds to the receptor or transporter. When equilibrium of binding is reached, the receptor bound radioactivity is separated from the non-bound radioactivity, and the receptor- or transporter-bound activity is counted. The interaction of the test compounds with the receptor is assessed in competition binding experiments. Various concentrations of the test compound are added to the incubation mixture containing the receptor- or transporter preparation and the radioligand. The test compound in proportion to its binding affinity and its concentration inhibits binding of the radioligand.
Human Dopamine D3 receptor-transfected CHO cells were collected by scraping into ice-cold Tris-HCl buffer (50 mM, pH 7.4). The suspension was centrifuged (23 500×g, 10 min, 4° C.) and pellets stored at −70° C. until required. They were then thawed and briefly homogenised using an Ultra-Turrax T25 homogeniser prior to dilution to an appropriate protein concentration optimised for specific and non-specific binding. [^125I]Iodosulpride (Amersham, specific activity 2000 Ci/mmol) was diluted in Tris-HCl assay buffer containing NaCl, CaCl2, MgCl2, KCl and BSA (50, 120, 2, 1, 5 mM, 0.1% respectively, adjusted to pH 7.7 with HCl) at a concentration of 2 nmol/L. Prepared radioligand (20 μl) was incubated (60 min, RT) and with 20 μl of either the 10% DMSO control, Risperidone (10^−6 mol/L final concentration), or compound of interest, then with membrane preparations (80 μl). Overnight incubation followed after addition of WGA-coated PVT SPA beads (250 μl; Amersham) and membrane-bound counts measured in a Wallac Microbeta. % Specific bound and competition binding curves were calculated using S-Plus software (Insightful).

[2] = molecular target: T2, Human Dopamine D2L receptor (Homo sapiens, UniProt P14416); assay: Binding experiment for dopamine D2 receptor ([3H]Spiperone); conditions: D2L-transfected CHO cell membranes; for IC50: read-out: pIC50 D2 (converted)
T2 construct: expressed in transfected cells; host or cells: CHO cells
T2 sequence (P14416 whole entry): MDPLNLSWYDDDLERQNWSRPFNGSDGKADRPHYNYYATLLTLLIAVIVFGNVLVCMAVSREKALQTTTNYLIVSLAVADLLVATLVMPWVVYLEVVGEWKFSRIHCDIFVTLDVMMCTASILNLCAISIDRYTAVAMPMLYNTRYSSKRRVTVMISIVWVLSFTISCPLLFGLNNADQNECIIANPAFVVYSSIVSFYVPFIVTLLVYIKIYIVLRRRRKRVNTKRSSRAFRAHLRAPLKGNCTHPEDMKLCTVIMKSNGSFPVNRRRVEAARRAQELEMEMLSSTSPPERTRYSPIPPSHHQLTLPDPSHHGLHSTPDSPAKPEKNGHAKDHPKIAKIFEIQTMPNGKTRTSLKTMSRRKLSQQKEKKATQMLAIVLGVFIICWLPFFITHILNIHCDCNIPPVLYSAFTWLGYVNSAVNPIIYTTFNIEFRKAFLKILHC
Method: as §1
Human Dopamine D2L receptor-transfected CHO cells were collected by scraping into ice-cold Tris-HCl buffer (50 mM, pH 7.4). The suspension was centrifuged (23 500×g, 10 min, 4° C.) and pellets stored at −70° C. until required. They were then thawed and briefly homogenised using an Ultra-Turrax T25 homogeniser prior to dilution to an appropriate protein concentration optimised for specific and non-specific binding. [^3H]Spiperone (NEN, specific activity ˜70 Ci/mmol) was diluted in Tris-HCl assay buffer containing NaCl, CaCl2, MgCl2, KCl (50, 120, 2, 1, and 5 mM respectively, adjusted to pH 7.7 with HCl) at a concentration of 2 nmol/L. Prepared radioligand (50 μl) was then incubated (30 min, 37° C.) with membrane preparations pre-diluted to an appropriate protein concentration (400 μl), and with 50 μl of either the 10% DMSO control, Butaclamol (10^−6 mol/L final concentration), or compound of interest. Membrane-bound activity was detected by filtration through a Packard Filtermate harvester onto Unifilterplates, washing with ice-cold Tris-HCl buffer (50 mM; pH8.0; 3×4 ml). Filters were allowed to dry before adding scintillation fluid and counting in a Topcount scintillation counter. % Specific bound and competition binding curves were calculated using S-Plus software (Insightful).

Human 5HT1A receptor = molecular target: T3, Human 5HT1A receptor (Homo sapiens, UniProt P08908); assay: Binding experiment for 5-HT1A receptor ([3H]8OHDPAT); conditions: transfected L929 cell membranes, [3H]8OHDPAT; for IC50: read-out: pIC50 5-HT1A (converted)
T3 construct: expressed in transfected cells; host or cells: L929 cells (stably transfected)
T3 sequence (P08908 1-422): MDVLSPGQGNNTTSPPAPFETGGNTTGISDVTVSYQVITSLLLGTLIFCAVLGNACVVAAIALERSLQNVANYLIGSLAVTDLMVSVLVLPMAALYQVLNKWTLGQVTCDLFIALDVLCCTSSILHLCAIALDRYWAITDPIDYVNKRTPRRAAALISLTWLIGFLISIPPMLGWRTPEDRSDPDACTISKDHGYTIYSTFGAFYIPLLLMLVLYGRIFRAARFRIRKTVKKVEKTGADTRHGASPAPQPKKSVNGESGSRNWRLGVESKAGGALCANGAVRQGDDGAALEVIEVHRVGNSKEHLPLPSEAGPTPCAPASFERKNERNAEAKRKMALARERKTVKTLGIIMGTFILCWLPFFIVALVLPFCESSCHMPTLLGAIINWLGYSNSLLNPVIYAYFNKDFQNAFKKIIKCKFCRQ
Method: as §1
Human 5HT1A receptor-transfected L929 cells were collected by scraping into ice-cold Tris-HCl buffer (50 mM, pH 7.4). The suspension was centrifuged (23 500×g, 10 min, 4° C.) and pellets stored at −70° C. until required. They were then thawed and briefly homogenised using an Ultra-Turrax T25 homogeniser prior to dilution to an appropriate protein concentration optimised for specific and non-specific binding. [^3H]80HDPAT (NEN, specific activity 127 Ci/mmol) was diluted in Tris-HCl assay buffer containing CaCl2 (50 mM and 4 mM, respectively; pH 7.7) at a concentration of 5 nmol/L. Prepared radioligand (50 μl) was then incubated (30 min, 37° C.) with membrane preparations from L929 cells stably-transfected with the h5HT1A gene construct (400 μl) and with 50 μl of either the 10% DMSO control, spiroxatrine (10^−6 mol/L final concentration), or compound of interest. Membrane-bound activity was detected by filtration through a Packard Filtermate harvester onto Unifilterplates, washing with ice-cold Tris-HCl buffer (3×4 ml), followed by drying. Scintillation fluid was added and membranes were counted in a Topcount scintillation counter. % Specific bound and competition binding curves were calculated using S-Plus software (Insightful).

human 5HT transporter = molecular target: T4, human 5HT transporter (Homo sapiens, UniProt P31645); assay: Binding experiment for 5-HT transporter ([3H]Paroxetine); conditions: transfected HEK cell membranes, [3H]Paroxetine; for IC50: read-out: pIC50 5HTT (converted)
T4 construct: host or cells: HEK cells
T4 sequence (P31645 whole entry): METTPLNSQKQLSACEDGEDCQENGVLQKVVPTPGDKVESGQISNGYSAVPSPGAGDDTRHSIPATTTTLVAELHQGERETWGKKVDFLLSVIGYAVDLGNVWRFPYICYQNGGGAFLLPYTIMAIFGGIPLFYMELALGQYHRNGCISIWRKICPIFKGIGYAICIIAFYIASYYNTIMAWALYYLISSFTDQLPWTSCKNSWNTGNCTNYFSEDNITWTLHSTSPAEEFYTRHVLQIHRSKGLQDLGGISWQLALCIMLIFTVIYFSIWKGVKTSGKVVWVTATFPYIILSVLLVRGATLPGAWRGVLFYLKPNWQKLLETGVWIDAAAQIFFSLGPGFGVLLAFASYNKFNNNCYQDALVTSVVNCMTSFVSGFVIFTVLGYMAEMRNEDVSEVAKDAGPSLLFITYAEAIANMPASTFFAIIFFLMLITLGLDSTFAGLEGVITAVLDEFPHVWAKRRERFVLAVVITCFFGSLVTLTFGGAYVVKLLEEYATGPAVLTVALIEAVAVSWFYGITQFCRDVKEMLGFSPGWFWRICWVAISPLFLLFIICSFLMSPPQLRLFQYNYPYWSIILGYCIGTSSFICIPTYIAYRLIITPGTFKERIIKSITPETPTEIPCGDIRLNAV
Method: as §1
Frozen human 5HT transporter-transfected HEK cells (Perkin Elmer, Brussels) were thawed and briefly homogenised using an Ultra-Turrax T25 homogeniser prior to dilution to an appropriate protein concentration optimised for specific and non-specific binding. [^3H]Paroxetine (NEN, specific activity 20 Ci/mmol) was diluted in Tris-HCl assay buffer containing NaCl and KCl (50 mM, 120 mM and 5 mM, respectively; pH 7.4) at a concentration of 5 nmol/L. Prepared radioligand (25 μl) was then incubated (60 min, 25° C.) with membrane preparations (200 μl) and with 25 μl of either 10% DMSO control, Inipramine (10^−6 mol/L final concentration), or compound of interest. Membrane-bound activity was detected by filtration through a Packard Filtermate harvester onto Unifilterplates pre-soaked in 0.1% PEI, washing with ice-cold assay buffer (3×4 ml). Filters were dried prior to addition of scintillation fluid and then counting in a Topcount scintillation counter. % Specific bound and competition binding curves were calculated using S-Plus software (Insightful).

| Structure (SMILES) | IC50 [1] | IC50 [2] | IC50 (Human 5HT1A receptor) | IC50 (human 5HT transporter) | pIC50 D3 [1] | pIC50 D2 [2] | pIC50 5-HT1A (Human 5HT1A receptor) | pIC50 5HTT (human 5HT transporter) |
| --- | --- | --- | --- | --- | --- | --- | --- | --- |
| COc1cc2c(cc1OC)C1=NOC(CN3CC=C(c4c[nH]c5ccc(F)cc45)CC3)C1CO2 (racemic) [Compound 1] | 126 nM | 398 nM | 31.6 nM | 15.8 nM |  |  |  |  |
| COc1cc2c(cc1OC)C1=NOC(CN3CCC(c4c[nH]c5ccc(F)cc45)CC3)C1CO2 (racemic) [Compound 2] |  |  |  |  | 7.2 | 7.2 | 8.8 | 7.4 |
| COc1ccc2[nH]cc(C3=CCN(CC4ON=C5c6cc(OC)c(OC)cc6OCC54)CC3)c2c1 (racemic) [Compound 7] |  |  |  |  | <6 | <6 | 8.1 | 6.4 |
| COc1cc2c(cc1OC)C1=NOC(CN3CC=C(c4c[nH]c5cccc(F)c45)CC3)C1CO2 (racemic) [Compound 9] |  |  |  |  | 6.6 | 6.1 | 8.2 | 7.5 |
| COc1cc2c(cc1OC)C1=NOC(CN3CC=C(c4c[nH]c5ccc(Br)cc45)CC3)C1CO2 (racemic) [Compound 10] |  |  |  |  | 6.5 | 6.3 | 8.3 | 6.7 |
| COc1cc2c(cc1OC)C1=NOC(CN3CCC(c4c[nH]c5cccc(F)c45)CC3)C1CO2 (racemic) [Compound 17] |  |  |  |  | 6.3 | 6.9 | 8.2 | 7.6 |
| COc1cc2c(cc1OC)C1=NOC(CN3CC=C(c4c[nH]c5ccc(C)cc45)CC3)C1CO2 (racemic) [Compound 18] |  |  |  |  | 6.4 | 6.4 | 8.2 | 7.0 |
| COc1cc2c(cc1OC)C1=NOC(CN3CC=C(c4c[nH]c5ccc([N+](=O)[O-])cc45)CC3)C1CO2 (racemic) [Compound 19] |  |  |  |  | 6.5 | 6.1 | 8.1 | 7.1 |
| COc1cc2c(cc1OC)C1=NOC(CN3CCC(c4c[nH]c5ccc(N)cc45)CC3)C1CO2 (racemic) [Compound 20] |  |  |  |  | <6 | 6.2 | 7.6 | 5.4 |
| COc1cc2c(cc1OC)C1=NOC(CN3CC=C(c4c[nH]c5ccc(O)cc45)CC3)C1CO2 (racemic) [Compound 21] | 158 nM | 631 nM | 12.6 nM | 39.8 nM |  |  |  |  |
| COc1cc2c(cc1OC)C1=NOC(CN3CC=C(c4c[nH]c5ccc(-c6ccccc6)cc45)CC3)C1CO2 (racemic) [Compound 22] | 3160 nM | 3980 nM | 25.1 nM | 2510 nM |  |  |  |  |
| COc1cc2c(cc1OC)C1=NOC(CN3CC=C(c4c[nH]c5ccc(C#N)cc45)CC3)C1CO2 (racemic) [Compound 23] |  |  |  |  | 6.8 | 6.1 | 8.2 | 7.4 |
| COc1cc2c(cc1OC)C1=NOC(CN3CCC(c4c[nH]c5ccc(C#N)cc45)CC3)C1CO2 (racemic) [Compound 24] |  |  |  |  | 6.9 | 6.4 | 8.7 | 7.4 |
| COc1cc2c(cc1OC)C1=NOC(CN3CC=C(c4c[nH]c5ccc(Cl)cc45)CC3)C1CO2 (racemic) [Compound 25] |  |  |  |  | 6.9 | 6.6 | 8.3 | 7.1 |
| COc1cc2c(cc1OC)C1=NOC(CN3CCC(c4c[nH]c5cc(F)ccc45)CC3)C1CO2 (racemic) [Compound 26] |  |  |  |  | 6.7 | 7.9 | 8.2 | 7.6 |
| COc1cc2c(cc1OC)C1=NOC(CN3CC=C(c4c[nH]c5cc(F)ccc45)CC3)C1CO2 (racemic) [Compound 27] |  |  |  |  | 6.4 | 6.9 | 7.2 | 7.6 |
| COc1cc2c(cc1OC)C1=NOC(CN3CCC(c4c[nH]c5c(F)cccc45)CC3)C1CO2 (racemic) [Compound 30] |  |  |  |  | 6.4 | 6.0 | 7.4 | 6.5 |
| COc1cc2c(cc1OC)C1=NOC(CN3CCC(c4c[nH]c5ccc(C)cc45)CC3)C1CO2 (racemic) [Compound 31] | 398 nM | 398 nM | 3.16 nM | 200 nM |  |  |  |  |
| COc1cc2c(cc1OC)C1=NOC(CN3CCC(c4c[nH]c5ccc(Cl)cc45)CC3)C1CO2 (racemic) [Compound 32] |  |  |  |  | 6.6 | 6.8 | 8.5 | 7.4 |
| COc1cc2c(cc1OC)C1=NOC(CN3CC=C(c4c[nH]c5ccc(F)cc45)CC3)C1CO2 (single isomer, unassigned) [Compound 3] |  |  |  |  | 7.0 | 6.0 | 6.8 | 7.4 |
| COCCOCOc1ccc2[nH]cc(C3=CCN(CC4ON=C5c6cc(OC)c(OC)cc6OCC54)CC3)c2c1 (centres unmarked) [Compound 62] |  | > 10000 nM | 63.1 nM | > 10000 nM |  |  |  |  |
